Results reported in US10265303B2, “Hyperphenylalaninemia and treatments thereof” (BERGEN TEKNOLOGIOVERFØRING AS, priority 2015, dated 2019).

Target: T1, human wild-type PAH (Homo sapiens, UniProt P00439)
T1 construct: expressed in transfected cells
T1 sequence (P00439 1-452): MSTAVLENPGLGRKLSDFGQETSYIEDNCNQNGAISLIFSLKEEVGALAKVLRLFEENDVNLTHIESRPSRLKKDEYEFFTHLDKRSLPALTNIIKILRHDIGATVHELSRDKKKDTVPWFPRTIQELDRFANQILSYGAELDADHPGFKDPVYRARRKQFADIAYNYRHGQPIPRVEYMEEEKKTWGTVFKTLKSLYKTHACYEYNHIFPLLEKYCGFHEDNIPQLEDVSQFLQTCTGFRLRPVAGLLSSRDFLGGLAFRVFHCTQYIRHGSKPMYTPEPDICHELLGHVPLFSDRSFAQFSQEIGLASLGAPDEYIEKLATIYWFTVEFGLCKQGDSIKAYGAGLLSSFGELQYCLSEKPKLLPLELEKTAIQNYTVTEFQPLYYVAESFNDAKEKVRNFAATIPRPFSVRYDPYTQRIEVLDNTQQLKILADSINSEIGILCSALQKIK
Assay: PAH activity in lysates of HEK293 cells permanently expressing human wild-type PAH
Assay type: cell-based
Experimental: (§1) Human embryonic kidney cells (HEK293; Life Technologies™) permanently expressing WT-hPAH, prepared with the Flp-In system (Life Technologies™) were kindly provided by Per Knappskog, Haukeland University Hospital. About 1 million cells were grown in DMEM medium containing 4.5 g/l glucose, 10% (v/v) fetal calf serum, 0.25 mg/ml gentamycine, 2 mM L-glutamine and 50 μg/ml hygromycin B, and after 24 h medium was changed and the test compounds were added at a concentration of 0.02 mg/ml (1% DMSO). Eight hours later, the cells were harvested, and the pellets frozen in dry ice and stored at −80° C. […] To prepare the cell extracts, the frozen cell pellets were thawed in TBS (+protease inhibitor) buffer and cells were homogenized with 0.1% TX-100, incubated 15 minutes at 4° C. and extracts were clarified by centrifugation 20000 g for 15 min at 4° C. Protein concentrations were normalized using a Direct Detect Spectrometer (Merck Millipore).
The 7 selected compounds as well as the first generation pharmacological chaperones (Compounds III and IV) were further analyzed in the presence and absence of BH2 (200 μM), added as precursor of BH4, to account for additive effects. […]
as §1, with “and the compounds were” for “and the test compounds were”, “concentration of 0.04 mg/ml (1%” for “concentration of 0.02 mg/ml (1%”, “for 15 minutes at 4°” for “for 15 min at 4°”

effect on PAH activity (FIG. 1A) (0.04 mg/ml (average 116.7 μM), 1% DMSO, 8 h): very large stimulating effect
PAH activity-cells (%) (0.04 mg/ml compound, 1% DMSO, 8 h, Table 3): 148 ± 16%
increase of hPAH activity with respect to the control (FIG. 6) (average compound concentration 144.9 μM, 1% DMSO, 8 h): around 40%
effect on PAH activity together with BH2 (FIG. 1B) (compound average 116.7 μM plus BH2 200 μM): additive
SMILES: COc1cc(Cc2cnc(N)nc2N)cc(OC)c1OC [c53, trimethoprim]
